From patent US10004732B2 (Novartis AG, priority 2014, dated 2018)
pIC50: −log10 of the molar value.

Key:
[1] = biological target: T1, PI 3-kinase gamma (Homo sapiens, UniProt P48736); assay: TR-FRET Adapta assay, assay E; format: biochemical; conditions: read-out: Assay E PI3Kγ IC50
[2] = Microsomal clearance assay (M); conditions: intrinsic clearance in rat liver microsomes
Experimental: The experiments were performed in 96-well glass plates at 37° C. on an automated Tecan EVO platform. Test compounds at a concentration of 10 mM in pure DMSO were diluted 1:1000 in water to 10 μM. […] Reactions were initiated by the addition of 150 μL of a cofactor solution containing 2 mM NADPH.

[3] = biological target: T2, PI 3-kinase alpha (Homo sapiens, UniProt P42336); assay: Kinase Glo Luminescent Kinase Assay (Kglo), assay A; format: biochemical; conditions: read-out: Assay A PI3Kα IC50
[4] = biological target: Vps34 (Homo sapiens, UniProt Q8NEB9); assay: Kinase Glo Luminescent Kinase Assay (Kglo), assay C; format: biochemical; conditions: read-out: Assay C VPS34 IC50
[5] = biological target: PI 4-kinase beta (Homo sapiens, UniProt Q9UBF8); assay: Kinase Glo Luminescent Kinase Assay (Kglo), assay D; format: biochemical; conditions: read-out: Assay D PI4Kβ IC50
[6] = biological target: T3, PI 3-kinase delta (Homo sapiens, UniProt O00329); assay: TR-FRET Adapta assay, assay F; conditions: for pIC50: read-out: Assay F PI3Kδ IC50
Target sequence in this assay (O00329 whole entry): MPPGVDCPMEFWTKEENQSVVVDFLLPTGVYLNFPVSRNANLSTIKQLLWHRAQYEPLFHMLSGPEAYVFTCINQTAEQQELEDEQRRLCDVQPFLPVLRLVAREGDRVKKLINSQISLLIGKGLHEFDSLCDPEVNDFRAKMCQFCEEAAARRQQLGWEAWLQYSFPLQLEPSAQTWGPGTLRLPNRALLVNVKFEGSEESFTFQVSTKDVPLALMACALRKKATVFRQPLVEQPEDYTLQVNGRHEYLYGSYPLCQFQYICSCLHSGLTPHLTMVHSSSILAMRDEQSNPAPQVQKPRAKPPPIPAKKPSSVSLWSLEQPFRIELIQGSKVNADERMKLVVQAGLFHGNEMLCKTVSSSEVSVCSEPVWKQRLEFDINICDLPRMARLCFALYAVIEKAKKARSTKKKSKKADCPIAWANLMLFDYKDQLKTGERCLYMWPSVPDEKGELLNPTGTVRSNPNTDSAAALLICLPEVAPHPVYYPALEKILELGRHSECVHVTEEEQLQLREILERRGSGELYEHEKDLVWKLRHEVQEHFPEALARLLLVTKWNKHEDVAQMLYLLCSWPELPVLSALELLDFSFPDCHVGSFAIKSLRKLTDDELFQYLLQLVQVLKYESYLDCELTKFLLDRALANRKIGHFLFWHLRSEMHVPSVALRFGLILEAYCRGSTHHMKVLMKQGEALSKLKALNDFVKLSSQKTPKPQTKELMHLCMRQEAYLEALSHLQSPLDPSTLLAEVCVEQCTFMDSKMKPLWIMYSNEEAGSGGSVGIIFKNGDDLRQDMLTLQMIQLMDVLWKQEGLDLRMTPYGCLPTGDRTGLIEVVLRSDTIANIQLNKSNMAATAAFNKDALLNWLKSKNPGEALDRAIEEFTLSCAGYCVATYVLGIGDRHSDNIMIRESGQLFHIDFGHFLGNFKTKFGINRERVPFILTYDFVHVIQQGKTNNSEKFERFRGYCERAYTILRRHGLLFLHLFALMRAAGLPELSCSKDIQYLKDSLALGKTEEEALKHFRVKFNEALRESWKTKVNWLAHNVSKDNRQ
Target sequence in this assay (P27986 461-568 partner): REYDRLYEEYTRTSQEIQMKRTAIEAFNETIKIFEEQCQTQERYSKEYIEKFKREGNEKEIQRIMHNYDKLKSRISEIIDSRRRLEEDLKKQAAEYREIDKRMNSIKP

[7] = biological target: T4, PI 3-kinase beta (Homo sapiens, UniProt P42338); assay: Cellular assay I1, p-Akt (S473) in Rat-1 cells, Surefire format; format: cell-based; conditions: non-asterisked data: version I1 (Surefire format), Rat-1 cells; read-out: Assay I PI3Kβ IC50
[8] = biological target: T3, PI 3-kinase delta; assay: Cellular assay J1, p-Akt (S473) in Rat-1 cells, Surefire format; format: cell-based; conditions: non-asterisked data: version J1 (Surefire format), Rat-1 cells; read-out: Assay J PI3Kδ IC50
Target sequence in this assay (O00329 whole entry): as the sequence (O00329 whole entry) above
Target sequence in this assay (Q63787 whole entry partner): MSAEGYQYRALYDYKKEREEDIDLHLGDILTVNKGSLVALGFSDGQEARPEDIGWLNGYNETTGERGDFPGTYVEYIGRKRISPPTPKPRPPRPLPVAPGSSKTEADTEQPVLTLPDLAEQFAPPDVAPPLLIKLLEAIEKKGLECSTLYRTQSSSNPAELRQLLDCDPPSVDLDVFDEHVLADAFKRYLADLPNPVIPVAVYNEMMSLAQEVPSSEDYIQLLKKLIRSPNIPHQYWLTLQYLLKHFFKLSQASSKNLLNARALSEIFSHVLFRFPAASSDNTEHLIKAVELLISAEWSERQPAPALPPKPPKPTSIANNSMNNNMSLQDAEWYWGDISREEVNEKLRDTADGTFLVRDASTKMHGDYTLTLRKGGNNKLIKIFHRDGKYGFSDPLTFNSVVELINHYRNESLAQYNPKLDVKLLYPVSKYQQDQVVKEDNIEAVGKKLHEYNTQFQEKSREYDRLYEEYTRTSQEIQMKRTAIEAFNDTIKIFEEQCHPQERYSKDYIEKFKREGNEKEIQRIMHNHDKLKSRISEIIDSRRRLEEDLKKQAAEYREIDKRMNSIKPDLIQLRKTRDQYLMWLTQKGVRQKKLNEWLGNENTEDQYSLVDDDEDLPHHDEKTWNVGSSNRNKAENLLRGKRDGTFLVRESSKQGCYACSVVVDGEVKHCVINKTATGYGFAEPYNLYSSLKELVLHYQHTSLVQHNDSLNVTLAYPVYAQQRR
Text: (§1) Cellular Assays for PI 3-Kinase Alpha (H1), Beta (I1) and Delta (J1): Surefire Format
(§2) AlphaScreen (Amplified Luminescent Proximity Homogeneous Assay, ALPHA, Perkin Elmer) is a non-radioactive bead-based proximity assay technology to study biomolecular interactions in a homogenous microtiter plate format. The brand name SureFire denotes AlphaScreen assays that are adapted to quantify the phosphorylation of endogenous cellular proteins in cell lysates, by using matched antibody pairs, which consist of an anti-phospho-kinase and an anti-kinase antibody. The assay allows characterization of kinase signaling in cells as well as measurement of kinase inhibitor effects.
(§3) Using Rat-1 cells stably expressing myr-HA-tagged versions of the human PI3Kdelta, PI3Kalpha, or PI3Kbeta p110 catalytic subunit isoforms, the assay was developed as a two-plate protocol in a 384-well format.
(§4) For compound testing, the cells were seeded at a density of 4000 (Rat-1_PI3Kdelta), 7500 (Rat-1_PI3Kalpha), or 6200 (Rat-1_PI3Kbeta) cells in 20 μl complete growth medium into cell culture treated 384-well plates and were grown at 37° C./5% CO2/90% humidity for 24 h. Shortly before compound transfer, the complete medium was removed, 30 μl assay buffer (DMEM high glucose, 1×MEM NEAA, 10 mM HEPES, 2 mM L-glutamine, 0.1% (w/v) BSA) was added and 10 μl of the compound predilutions were transferred to the cells.

[9] = biological target: mTOR (Homo sapiens, UniProt P42345); assay: Lanthascreen kinase binding assay, assay G; conditions: read-out: Assay G mTOR IC50
Experimental: Lanthascreen™ Kinase Binding Assay for mTOR (G)
Binding of an inhibitor to the kinase competes for binding with the tracer, resulting in a loss of FRET.
50 nL of compound dilutions were dispensed onto white 384-well small volume polystyrene plate.

[10] = biological target: T4, PI 3-kinase beta; assay: Kinase Glo Luminescent Kinase Assay (Kglo), assay B; format: biochemical; conditions: read-out: Assay B PI3Kβ IC50
[11] = biological target: T1, PI 3-kinase gamma; assay: Cellular U937 AKT assay K1 (MSD); format: cell-based; conditions: U937 cells, K1 format; read-out: Assay K1 PI3Kγ IC50
[12] = biological target: T2, PI 3-kinase alpha; assay: Cellular assay H1, p-Akt (S473) in Rat-1 cells, Surefire format; format: cell-based; conditions: non-asterisked data: version H1 (Surefire format), Rat-1 cells; read-out: Assay H PI3Kα IC50
Text: as §1, §2, §3, §4

[13] = tested on: IL-8-induced neutrophil shape change in human whole blood; assay: Whole blood neutrophil shape change assay (L); format: cell-based; conditions: Homo sapiens, Neutrophil, IL-8, human whole blood, read-out: Assay L WBSC IC50

T1 sequence (P48736 whole entry): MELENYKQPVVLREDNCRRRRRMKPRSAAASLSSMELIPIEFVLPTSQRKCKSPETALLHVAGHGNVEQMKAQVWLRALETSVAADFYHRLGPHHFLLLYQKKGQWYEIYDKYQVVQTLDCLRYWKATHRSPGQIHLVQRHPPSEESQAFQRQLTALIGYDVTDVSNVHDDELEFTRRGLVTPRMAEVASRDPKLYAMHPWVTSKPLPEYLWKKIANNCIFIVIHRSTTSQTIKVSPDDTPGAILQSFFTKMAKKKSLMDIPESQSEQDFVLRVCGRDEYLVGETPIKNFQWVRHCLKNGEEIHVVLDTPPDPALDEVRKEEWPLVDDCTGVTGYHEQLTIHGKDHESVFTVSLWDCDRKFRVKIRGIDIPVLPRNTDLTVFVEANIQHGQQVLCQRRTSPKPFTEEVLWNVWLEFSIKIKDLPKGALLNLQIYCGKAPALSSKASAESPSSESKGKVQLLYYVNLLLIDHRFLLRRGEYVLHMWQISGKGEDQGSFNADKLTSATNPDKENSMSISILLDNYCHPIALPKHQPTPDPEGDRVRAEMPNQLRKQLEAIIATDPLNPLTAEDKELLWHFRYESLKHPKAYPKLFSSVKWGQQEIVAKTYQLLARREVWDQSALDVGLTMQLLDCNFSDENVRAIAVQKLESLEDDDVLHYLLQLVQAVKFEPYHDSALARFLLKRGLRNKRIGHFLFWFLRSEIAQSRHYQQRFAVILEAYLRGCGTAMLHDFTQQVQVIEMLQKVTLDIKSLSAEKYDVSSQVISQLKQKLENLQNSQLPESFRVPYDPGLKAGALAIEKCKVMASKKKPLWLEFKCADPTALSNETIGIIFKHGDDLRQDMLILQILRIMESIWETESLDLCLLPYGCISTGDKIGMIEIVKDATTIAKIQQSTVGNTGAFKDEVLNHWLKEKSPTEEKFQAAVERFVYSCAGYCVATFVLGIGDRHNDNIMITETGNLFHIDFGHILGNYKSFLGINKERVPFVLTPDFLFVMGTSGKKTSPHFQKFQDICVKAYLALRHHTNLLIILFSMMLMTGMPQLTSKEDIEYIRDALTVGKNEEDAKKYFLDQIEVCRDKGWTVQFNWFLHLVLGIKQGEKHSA
Chain of PI 4-kinase beta (Q9UBF8 whole entry): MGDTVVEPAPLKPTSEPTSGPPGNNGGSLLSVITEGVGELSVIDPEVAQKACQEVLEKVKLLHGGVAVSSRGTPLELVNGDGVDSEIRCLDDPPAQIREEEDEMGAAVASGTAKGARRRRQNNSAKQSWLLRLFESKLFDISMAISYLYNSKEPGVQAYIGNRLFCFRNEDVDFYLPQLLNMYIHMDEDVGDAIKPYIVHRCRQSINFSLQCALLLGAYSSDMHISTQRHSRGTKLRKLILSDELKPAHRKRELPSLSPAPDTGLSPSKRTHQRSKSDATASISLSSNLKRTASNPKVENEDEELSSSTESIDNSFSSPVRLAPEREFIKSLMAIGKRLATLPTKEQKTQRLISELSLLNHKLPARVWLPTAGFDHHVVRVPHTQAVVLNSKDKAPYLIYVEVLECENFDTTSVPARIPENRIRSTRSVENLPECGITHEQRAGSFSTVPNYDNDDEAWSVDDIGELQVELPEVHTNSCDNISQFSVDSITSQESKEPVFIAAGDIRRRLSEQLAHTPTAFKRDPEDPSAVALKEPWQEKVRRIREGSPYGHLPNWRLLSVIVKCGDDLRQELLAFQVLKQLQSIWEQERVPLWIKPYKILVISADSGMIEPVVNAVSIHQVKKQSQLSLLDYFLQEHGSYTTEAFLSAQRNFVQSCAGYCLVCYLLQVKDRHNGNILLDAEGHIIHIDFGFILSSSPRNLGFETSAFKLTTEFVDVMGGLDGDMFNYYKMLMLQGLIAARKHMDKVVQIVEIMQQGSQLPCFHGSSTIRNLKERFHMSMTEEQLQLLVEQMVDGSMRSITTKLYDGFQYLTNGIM
Chain of Vps34 (Q8NEB9 whole entry, species assumed): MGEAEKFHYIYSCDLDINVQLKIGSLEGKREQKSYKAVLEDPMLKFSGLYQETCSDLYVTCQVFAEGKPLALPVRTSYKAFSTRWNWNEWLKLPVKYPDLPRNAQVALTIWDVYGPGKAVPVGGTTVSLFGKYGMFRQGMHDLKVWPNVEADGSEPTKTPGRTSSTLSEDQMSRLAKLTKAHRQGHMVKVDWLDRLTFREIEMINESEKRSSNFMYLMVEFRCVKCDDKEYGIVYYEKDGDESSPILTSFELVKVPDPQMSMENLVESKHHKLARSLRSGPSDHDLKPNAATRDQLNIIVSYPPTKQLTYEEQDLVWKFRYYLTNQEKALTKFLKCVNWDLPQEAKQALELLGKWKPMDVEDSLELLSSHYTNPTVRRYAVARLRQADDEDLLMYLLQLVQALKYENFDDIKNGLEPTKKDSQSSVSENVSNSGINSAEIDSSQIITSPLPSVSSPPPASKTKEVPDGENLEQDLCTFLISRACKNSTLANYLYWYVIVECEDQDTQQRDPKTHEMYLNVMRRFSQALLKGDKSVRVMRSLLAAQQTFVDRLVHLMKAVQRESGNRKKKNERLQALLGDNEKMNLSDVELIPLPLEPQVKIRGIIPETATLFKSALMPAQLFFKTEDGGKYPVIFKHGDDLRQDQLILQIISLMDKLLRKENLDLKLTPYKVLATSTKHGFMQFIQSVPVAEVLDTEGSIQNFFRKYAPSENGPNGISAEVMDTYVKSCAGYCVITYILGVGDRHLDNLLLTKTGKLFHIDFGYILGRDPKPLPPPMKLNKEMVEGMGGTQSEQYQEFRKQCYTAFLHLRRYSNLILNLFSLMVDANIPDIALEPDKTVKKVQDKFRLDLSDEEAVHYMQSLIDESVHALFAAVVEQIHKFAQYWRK

Compound	pIC50 [1]	Assay M RLM CI(int) [2] [µL/min/mg]	pIC50 [3]	pIC50 [4]	pIC50 [5]	pIC50 [6]	pIC50 [7]	pIC50 [8]	pIC50 [9]	pIC50 [10]	pIC50 [11]	pIC50 [12]	pIC50 [13]	IC50 ([6]; Assay F PI3Kδ IC50 (μM)) [µM]
Cc1ncc(-c2nc(-c3cc(S(=O)(=O)NCC(C)(C)CO)ccc3C)cnc2N)s1 [Example 8, 3-[5-Amino-6-(2-methyl-thiazol-5-yl)-pyrazin-2-yl]-N-(3-hydroxy-2,2-dimethyl-propyl)-4-methyl-benzenesulfonamide]	> 8.52	50	7.40	6.39	5.71	7.70	5.22	6.43	6.57	5.82	7.68	6.12	6.77	
Cc1ccc(S(=O)(=O)NCCC(C)(C)O)cc1-c1cnc(N)c(-n2cnc(C3CC3)n2)n1 [Example 26, 3-[5-Amino-6-(3-cyclopropyl-[1,2,4]triazol-1-yl)-pyrazin-2-yl]-N-(3-hydroxy-3-methyl-butyl)-4-methyl-benzenesulfonamide]	8.52	223	6.51	< 5.04	5.26	7.15	5.69	6.12	< 5.04	5.20	7.27	5.96	6.17	
Cc1ncc(-c2nc(-c3cc(S(=O)(=O)N4CCNC(C(F)(F)F)C4)ccc3C)cnc2N)s1 (centres unmarked) [Example 118, 5-(2-Methyl-5-(3-(trifluoromethyl)piperazin-1-ylsulfonyl)phenyl)-3-(2-methylthiazol-5-yl)pyrazin-2-amine]	7.96	264	7.52	5.84	5.33	6.89	5.80	6.28	6.34	6.33	6.99	6.20	6.05	
Cc1cc(F)c(S(=O)(=O)NCCC(C)(C)O)cc1-c1cnc(N)c(-c2cnn(C)c2)n1 [Example 115, 5-(5-Amino-6-(1-methyl-1H-pyrazol-4-yl)pyrazin-2-yl)-2-fluoro-N-(3-hydroxy-3-methylbutyl)-4-methylbenzenesulfonamide]	7.41	38	6.49	5.05	5.25	6.32	5.45	5.66	5.06	5.63	6.93	5.53	5.96	
Cc1cnn(-c2nc(-c3cc(S(=O)(=O)N[C@H]4CC[C@H](O)CC4)ccc3C)cnc2N)c1 [Example 111, 3-(5-Amino-6-(4-methyl-1H-pyrazol-1-yl)pyrazin-2-yl)-N-((1r,4r)-4-hydroxycyclohexyl)-4-methylbenzenesulfonamide]	7.74	74	6.74	< 5.04	5.71	7.22	< 5.00	6.34	< 5.04	5.70	7.70	5.83	6.20	
Cc1ccc(S(=O)(=O)NC[C@H]2C[C@@H](O)C2)cc1-c1cnc(N)c(-n2cncn2)n1 [Example 72, 3-(5-Amino-6-(1H-1,2,4-triazol-1-yl)pyrazin-2-yl)-N-(((1s,3s)-3-hydroxycyclobutyl)methyl)-4-methylbenzenesulfonamide]	7.47	41	6.24	< 5.04	< 5.04	6.41	5.22	5.58	< 5.04	5.57	6.53	5.51	6.14	
Cc1ccc(S(=O)(=O)NCC2(CO)COC2)cc1-c1cnc(N)c(-n2cncn2)n1 [Example 35, 3-(5-Amino-6-[1,2,4]triazol-1-yl-pyrazin-2-yl)-N-(3-hydroxymethyl-oxetan-3-ylmethyl)-4-methyl-benzenesulfonamide]	7.60	25	6.20	< 5.00	5.43	6.00	< 5.00	< 5.00	5.25	5.72	6.38	< 5.00	6.17	
Cc1cn(-c2nc(-c3cc(S(=O)(=O)N[C@H]4CC[C@H](O)CC4)ccc3C)cnc2N)cn1 [Example 56, Trans-3-(5-Amino-6-(4-methyl-1H-imidazol-1-yl)pyrazin-2-yl)-N-(-4-hydroxycyclohexyl)-4-methylbenzenesulfonamide]	7.72	24	6.54	5.45	5.14	7.10	5.23	5.51	5.62	5.76	6.89	5.36	6.68	
Cc1ccc(S(=O)(=O)N[C@H]2CC[C@H](O)CC2)cc1-c1cnc(N)c(-c2ccncc2)n1 [Example 11, Trans-3-(5-Amino-6-(pyridin-4-yl)pyrazin-2-yl)-N-(4-hydroxycyclohexyl)-4-methylbenzenesulfonamide]	8.00	78	6.85	< 5.04	5.45	6.89	5.16	5.45	5.23	5.58	7.24	5.59	6.80	

Next, values leading:

pIC50 [1]	Assay M RLM CI(int) [2] [µL/min/mg]	pIC50 [3]	pIC50 [4]	pIC50 [5]	pIC50 [6]	pIC50 [7]	pIC50 [8]	pIC50 [9]	pIC50 [10]	pIC50 [11]	pIC50 [12]	pIC50 [13]	IC50 ([6]; Assay F PI3Kδ IC50 (μM)) [µM]	Compound
8.05	>924	6.85	< 5.00	5.51	6.48	5.20	5.96	5.44	6.47	7.28	6.01	5.75		Cc1ccc(S(=O)(=O)NCC2(CO)CCCCC2)cc1-c1cnc(N)c(-n2cncn2)n1 [Example 127.52]
7.18	21	6.48	< 5.04	5.14	6.33	< 5.00	5.36	5.52	5.29	6.60	5.07	5.46		Cc1cc(-c2nc(-c3cc(S(=O)(=O)NC4CCC(C)(O)CC4)ccc3C)cnc2N)ccn1 (centres unmarked) [Example 129.19, 3-(5-amino-6-(2-methylpyridin-4-yl)pyrazin-2-yl)-N-(4-hydroxy-4-methylcyclohexyl)-4-methylbenzenesulfonamide]
7.46	87	6.77	< 5.04	5.24	6.92	5.03	6.04	5.32	5.30	6.89	6.33	6.14		Cc1ccc(S(=O)(=O)NCCC(C)(C)O)cc1-c1cnc(N)c(-c2ccncc2)n1 [Example 119.27]
7.42	49	6.41	< 5.00	< 5.00		5.35	5.58	5.04	5.46	6.99	5.48	5.94	0.53	Cc1ccc(S(=O)(=O)N[C@H]2CC[C@](C)(O)CC2)cc1-c1cnc(N)c(-n2cncn2)n1 [Example 69a, 3-(5-amino-6-(1H-1,2,4-triazol-1-yl)pyrazin-2-yl)-N-((1r,4r)-4-hydroxy-4-methylcyclohexyl)-4-methylbenzenesulfonamide]
7.30	101	6.35	< 5.04	< 5.04	6.60	5.39	5.62	< 5.04	< 5.04	6.48	5.56	5.66		COc1ccncc1-c1nc(-c2cc(S(=O)(=O)NCCC(C)(C)O)ccc2C)cnc1N [Example 119.2]
